Patent US5856344A, “Sulfonylamino-substituted benzoylguanidines, a process for their preparation, their use as a medicament or diagnostic aid, and medicament containing them” (Hoechst Aktiengesellschaft, priority 1995, dated 1999)
Where a name gives a salt, the structure may show the parent alone.

Target: T1, Na^+ /H^+ exchanger of rabbit erythrocytes (Oryctolagus cuniculus, UniProt P23791)
T1 construct: endogenous in cells; host or cells: erythrocytes in whole blood of cholesterol-fed White New Zealand rabbits (Ivanovas)
Assay: Inhibition of the Na+/H+ exchanger of rabbit erythrocytes (amiloride-sensitive sodium influx, flame photometry)
Type: cell-based, rabbit (White New Zealand)
Conditions: hyperosmolar salt/sucrose medium, pH 7.4, 37° C.
Description: Inhibition of the Na^+ /H^+ exchanger of rabbit erythrocytes White New Zealand rabbits (Ivanovas) received a standard diet containing 2% cholesterol for six weeks in order to activate Na^+ /H^+ exchange and thus to make it possible to determine the Na^+ influx into the erythrocytes via Na^+ /H^+ exchange by flame photometry. The blood was taken from the arteries of the ear and anticoagulated with 25 IU of potassium heparin. Part of each sample was used for duplicate determination of the hematocrit by centrifugation. Aliquots each of 100 μl were used to measure the Na^+ content of the erythrocytes.
In order to determine the amiloride-sensitive sodium influx, 100 μl of each blood sample were incubated in each case in 5 ml of a hyperosmolar salt/sucrose medium (mmol/l: 140 NaCl, 3 KCl, 150 sucrose, 0.1 ouabain, 20 trishydroxymethylaminomethane) at pH 7.4 and 37° C. The erythrocytes were then washed three times with ice-cold MgCl2 /ouabain solution (mmol/l: 112 MgCl2, 0.1 ouabain) and hemolyzed in 2.0 ml of distilled water. The intracellular sodium content was determined by flame photometry.
The net Na^+ influx was calculated from the difference between the initial sodium levels and the sodium content of the erythrocytes after incubation. […]

T1 sequence (P23791 whole entry): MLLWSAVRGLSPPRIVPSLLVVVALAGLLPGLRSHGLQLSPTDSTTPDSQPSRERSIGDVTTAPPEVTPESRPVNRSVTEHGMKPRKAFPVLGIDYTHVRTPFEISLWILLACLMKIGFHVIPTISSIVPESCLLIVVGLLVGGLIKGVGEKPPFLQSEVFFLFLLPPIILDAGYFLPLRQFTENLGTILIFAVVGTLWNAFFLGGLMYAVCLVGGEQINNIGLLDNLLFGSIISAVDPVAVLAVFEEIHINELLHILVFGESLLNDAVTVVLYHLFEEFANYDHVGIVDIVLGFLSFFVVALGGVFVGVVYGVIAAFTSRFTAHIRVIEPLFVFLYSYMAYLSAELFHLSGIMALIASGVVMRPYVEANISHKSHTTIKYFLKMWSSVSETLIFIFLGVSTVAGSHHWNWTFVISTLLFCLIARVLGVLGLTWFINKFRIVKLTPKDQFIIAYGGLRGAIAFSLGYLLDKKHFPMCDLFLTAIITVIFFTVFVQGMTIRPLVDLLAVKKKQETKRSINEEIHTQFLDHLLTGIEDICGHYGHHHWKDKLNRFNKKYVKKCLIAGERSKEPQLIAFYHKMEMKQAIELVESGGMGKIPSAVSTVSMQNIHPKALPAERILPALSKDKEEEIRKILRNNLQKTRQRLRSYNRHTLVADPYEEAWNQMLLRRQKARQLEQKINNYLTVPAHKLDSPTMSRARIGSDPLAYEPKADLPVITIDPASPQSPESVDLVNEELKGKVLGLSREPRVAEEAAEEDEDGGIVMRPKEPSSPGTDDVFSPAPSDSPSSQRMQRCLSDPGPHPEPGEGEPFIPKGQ

Structure (SMILES) | IC50 [nM]
CS(=O)(=O)Nc1cc(C(=O)N=C(N)N)ccc1Oc1cccnc1 [Example 2, 3-Methylsulfonylamino-4--(3-pyridyloxy)benzoylguanidine] | 740
CC(C)c1ccc(C(=O)N=C(N)N)cc1NS(C)(=O)=O [Example 1, 4-Isopropyl-3-methylsulfonylaminobenzoylguanidine, hydrochloride] | 300
